Consider 2 compounds from patent US8778913B2, “Antimicrobial compositions for treating microbial infections” (priority 2006, dated 2014).

Data set [1] relates to S. aureus. Briefly: S. aureus growth inhibition in culture. Type of data set: cell-based, Staphylococcus aureus. As for the experimental part:
The compound of Formula III was prepared as described in Magnin et al., α-Phosphonosulfonic acids: Potent and selective inhibitors of squalene synthase, J. Med. Chem. 39 (1996) 657-660, and tested in S. aureus growth inhibition and in pigment formation.
(§1) Wild-type S. aureus strain (Pig1), isolated from the skin of a child with atopic dermatitis. Streptococcus pyogenes strain 5448 is a well-characterized serotype M1T1 clinical isolate. CD1 and C57Bl/6 mice were purchased from Charles River. The gp91^Phos−/− mice were bred at the Veteran's Administration Medical Center, San Diego and maintained on trimethoprim/sulfamethoxazole prophylaxis until 3 d prior to experiments. S. aureus and S. pyogenes were propagated in Todd-Hewitt broth (THB) or on THB agar (Difco, Detroit, Mich.). Unless otherwise indicated, all experiments were performed with bacteria derived from S. aureus 36-48 h stationary phase cultures or S. pyogenes 24 h stationary phase cultures, a point when pigmentation phenotypes were readily apparent.
Inhibition of staphyloxanthin biosynthesis by formula III could represent a purely virulence factor-based therapy for S. aureus infection. […]

Data set [2] relates to MCF-7. Briefly: Growth of human cell line MCF-7. It is filed as cell-based. On the procedure: (§2) Inhibition of staphyloxanthin biosynthesis by formula III could represent a purely virulence factor-based therapy for S. aureus infection. […] However, after incubation with 100 μM formula III, the resulting non-pigmented S. aureus were ˜15-fold more susceptible to killing by 1.5% hydrogen peroxide and ˜4-fold less able to survive in freshly isolated human whole blood than were normally pigmented S. aureus treated with PBS control. As expected, formula III had no effect on the growth of three human cell lines (MCF-7, NCI-H460 and SF-268) since there only cholesterol biosynthesis is targeted, and cholesterol is generally abundant in serum (or diet).

In data set [3] the test system is NCI-H460. Briefly: Growth of human cell line NCI-H460. It is filed as cell-based. As for the experimental part:
as §2

Data set [4] deals with staphyloxanthin biosynthesis. Briefly: S. aureus pigment (staphyloxanthin) formation. It is filed as cell-based, Staphylococcus aureus. The settings on record: for IC50: Staphylococcus aureus.
Source text: as §1
A series of known SQS inhibitors were tested for inhibition of staphyloxanthin biosynthesis.

For data set [5], the target named is T1, CrtM (dehydrosqualene synthase) (Staphylococcus aureus, UniProt A9JQL9).
T1 construct: made in house; host or cells: E. coli
T1 sequence (A9JQL9 1-287): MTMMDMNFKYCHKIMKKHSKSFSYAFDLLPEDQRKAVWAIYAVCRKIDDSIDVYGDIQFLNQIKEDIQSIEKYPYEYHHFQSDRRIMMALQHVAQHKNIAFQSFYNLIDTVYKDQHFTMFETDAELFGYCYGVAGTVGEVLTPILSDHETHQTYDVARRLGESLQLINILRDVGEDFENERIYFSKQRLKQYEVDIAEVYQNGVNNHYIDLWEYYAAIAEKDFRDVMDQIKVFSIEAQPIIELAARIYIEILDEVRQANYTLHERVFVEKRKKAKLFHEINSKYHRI
Briefly: Recombinant CrtM enzyme inhibition. Type of data set: biochemical, S. aureus. On the procedure: A series of known SQS inhibitors were tested for inhibition of staphyloxanthin biosynthesis. […] Since Formula III (and its analogs) have been advanced through Phase II human clinical trials as cholesterol-lowering agents, the agent is clearly of potential interest as a new lead compound inhibiting staphyloxanthin virulence factor formation in S. aureus.

Data set [6] concerns S. aureus. The data set is described as follows: Hydrogen peroxide susceptibility assay. It is filed as cell-based, Staphylococcus aureus. The settings on record: after incubation with 100 μM; vs PBS control. As for the experimental part: (§3) Tests for susceptibility to oxidants were performed either in PBS (S. aureus) or THB (S. pyogenes). Hydrogen peroxide (H2O2) was added to 1.5% final concentration, […] bacteria incubated at 37° C. for 1 h, then 1,000 U/ml of catalase (Sigma) added to quench residual H2O2. Dilutions were plated on THA for enumeration of surviving cfu. For the singlet oxygen assay, 10^8 S. aureus or 4×10^8 S. pyogenes were incubated at 37° C. in individual wells of a 24-well culture plate in the presence or absence of 1-6 μg/ml methylene blue and situated exactly 10 cm from a 100-watt light source. Bacterial viability was assessed after 1-3 h by plating dilutions on THA.

For data set [7], the system named is S. aureus. The data set is described as follows: In vivo mouse model of S. aureus skin infection. As for the experimental part: Ten to 16 week old CD-1 or gp91^Phox−/− mice were injected subcutaneously in one flank (chosen randomly) with the bacterial test strain, and simultaneously in the opposite flank with a different strain for direct comparison. Bacterial cultures were washed, diluted and resuspended in PBS mixed 1:1 with sterile Cytodex beads (Amersham) at the specified inoculum, following an established protocol for generating localized S. aureus and S. pyogenes subcutaneous infection. Lesion size, as assessed by the maximal length×width of the developing ulcers, was recorded daily. Cumulative lesion size represents the total sum of lesion sizes from all animals in each treatment group on a given day. At day 8 (S. aureus) or day 5 (S. pyogenes), animals were euthanized, skin lesions excised, homogenized in PBS, and plated on THA for quantitative culture.

Data set [8] deals with S. aureus. The data set is described as follows: Systemic (intraperitoneal) S. aureus challenge in mice. Type of data set: in vivo, mouse. On the procedure: Here cfu counts are measured in the kidneys.
0/6 mice treated with the compound of Formula III had detectable bacteria in either organ.
Given the in vitro abilities of formula III treatment to increase S. aureus susceptibility to oxidants and blood (neutrophil-mediated) clearance, in vivo testing was performed. Under intraperitoneal challenge one group of mice (n=14) was treated with […] b.i.d. (days −1, 0, 1 and 2), and a second group (n=13) with equivalent volume injections of PBS control.

The test system of data set [9] is S. aureus. The data set is described as follows: Whole blood killing assay. Type of data set: cell-based, Staphylococcus aureus. As for the experimental part: Bacteria were washed twice in PBS, diluted to an inoculum of 10^4 cfu in 25 μl PBS, and mixed with 75 μl of freshly drawn human or mouse blood in heparinized tubes. The tubes were incubated at 37° C. for 4 h with agitation, at which time dilutions were plated on THA for enumeration of surviving cfu.

Data set [10] relates to SF-268. The data set is described as follows: Growth of human cell line SF-268. It is filed as cell-based. As for the experimental part:
as §2

Data set [11] concerns staphyloxanthin biosynthesis. The note with it: earlier report; cited from earlier work.
The subject of data set [12] is S. aureus. The data set is described as follows: Singlet oxygen susceptibility assay. It is filed as cell-based, Staphylococcus aureus. As for the experimental part: as §3

Read-outs that look alike come from different tables or passages of the source.

`O=P([O-])([O-])C(CCCc1cccc(Oc2ccccc2)c1)S(=O)(=O)[O-].[K+].[K+].[K+]` (racemic) [Formula III]: the “effect on cell growth” value in data set [1] (S. aureus growth inhibition) was “no detectable effect”. Besides, in data set [1] (up to 2 mM, through 48 hr), the “effect on S. aureus growth characteristics or survival in culture” value is “did not affect”. The “effect on growth of human cell line” value in data set [2], in [3] and in data set [10] was “no effect” each time. The “effect on pigment formation” value in data set [4] is listed as “potent effect”. Moreover, the IC50 was around 2 µM in data set [4] (48 h, after 2 days at 37° C. with shaking (Table 1 title), read-out: IC50 (concentration for 50% pigment formation)); around 1 µM in data set [4] (read-out: IC50, inhibition of staphyloxanthin biosynthesis); 0.6 µM in data set [5] (S. aureus enzyme expressed in E. coli). Besides, the Ki in [5] (corresponding to the IC50) is around 0.0015 µM. The “increase in susceptibility to killing by 1.5% hydrogen peroxide” value in data set [6] was around 15 fold. The lesion size entry in data set [7] (200 μM (FIG. 9A)) and in [7] (1000 μM (FIG. 9B)) was “major decrease” throughout. The “ill effects in mice” value in data set [7] (200 μM or 1000 μM) was “no apparent ill effects”. For the same compound, the “mice with cfus below the detection threshold (kidneys)” value in data set [8] (0.5 mg b.i.d. days −1, 0, 1, 2, sacrifice at 72 h) is given as 8/13. The “S. aureus bacterial counts in the kidneys vs control group” value in data set [8] (0.5 mg b.i.d. days −1, 0, 1, 2, sacrifice at 72 h, P<0.001) is listed as “significantly lower”. The “mice with detectable bacteria in the spleen” value in data set [8] (after 4 days (FIG. 12A)) is reported as 0/6. The “mice with detectable bacteria in the kidneys” value in [8] (after 4 days (FIG. 12B)) was 0/6. The “ED50, whole blood killing of S. aureus” value in data set [9] (FIG. 8) is around 20 µM. The “decrease in ability to survive in freshly isolated human whole blood” value in data set [9] (after incubation with 100 μM, vs PBS control) is around 4 fold. For the same compound, the “enhancement in whole blood killing of S. aureus” value in data set [9] (at 40 μM (FIG. 8)) is around 3 fold.

Take `CCCC(C(=O)OCCN(CC)CC)(c1ccccc1)c1ccccc1` [SKF 525-A, 2-diethylaminoethyl-2,2-diphenyl-valerate, reference compound]: in data set [11], the “pigment formation in S. aureus (previously shown)” value is “inhibit pigment formation”. For the same compound, the “susceptibility to singlet oxygen killing” value in data set [12] (WT S. aureus (FIG. 4b)) is “dose-dependent increase”. Further, the “effect on oxidant susceptibility of ΔCrtM mutant” value in data set [12] (ΔCrtM mutant control) was “no significant effects”. Moreover, the “pigment production in WT S. aureus” value in data set [4] (WT strain grown in presence of agent (FIG. 4a)) is given as “dose-dependent decrease”. Besides, the “ability of WT S. aureus to survive in human whole blood” value in [9] (WT S. aureus (FIG. 4c)) is “decrease”. In addition, the “effect on blood survival of ΔCrtM mutant” value in data set [9] (ΔCrtM mutant control) is recorded as “no significant effects”.

For orientation: Ki means the dissociation constant of the complex between target and ligand, obtained from inhibition or displacement.
